Experimental data taken from ChEMBL document CHEMBL4483862, “Open-source discovery of chemical leads for next-generation chemoprotective antimalarials” (2018).

Test system: Plasmodium berghei
Experiment: Luciferase/luciferin-expressing antifolate-resistant parasites were used to infect a culture of HepG2 cells that were pre-incubated with compounds. Infected hepatocytes emit light due to the luciferase reaction. Assay results are presented as the percent inhibition of light emission compared to control. […]
Assay type: functional
Settings: sporozoite; for IC50: read-out: LUCIFERASE INFECTION ASSAY - IC50; for IC90: read-out: LUCIFERASE INFECTION ASSAY - IC90

CCOc1ccc(/C=C/C(=O)C(C(N)=O)=C2SCCS2)cc1
IC50: > 10 µM | IC90: > 10 µM

COc1ccccc1/C=C(/CC(=O)NCc1ccc2c(c1)OCO2)c1nc2ccccc2s1
IC50: > 10 µM | IC90: > 10 µM

O=C(OCc1csc(-c2ccccc2)n1)c1ccccc1Sc1ccc(C(F)(F)F)cc1[N+](=O)[O-]
IC50: > 10 µM | IC90: > 10 µM

O=[N+]([O-])c1cccc2nc(/C=C/c3nn(Cc4ccccc4)cc3-c3cccnc3)ccc12
IC50: > 10 µM | IC90: > 10 µM

Cc1cc(C)cc(N(C(=O)Cc2coc3cc(C)ccc23)c2nc(-c3ccc(F)cc3)cs2)c1
IC50: > 10 µM | IC90: > 10 µM

CCOc1ncccc1C(=O)NCC(c1ccc(OC)cc1)N1CCCCC1 (configuration not stated)
IC50: > 10 µM | IC90: > 10 µM

COc1ccc(-c2nnc(SCC(=O)Nc3cc(-c4cc(C)c(C)cc4C)nn3-c3ccccc3)n2C(C)C)cc1
IC50: > 10 µM | IC90: > 10 µM

Cc1cc(O)c(CN2CCN(S(=O)(=O)/C=C/c3ccccc3)CC2)cc1C(C)C
IC50: > 10 µM | IC90: > 10 µM

O=C1/C(=C\Nc2nnc(-c3ccccc3)c(-c3ccccc3)n2)c2ccccc2C(=O)N1c1cccc(C(F)(F)F)c1
IC50: > 10 µM | IC90: > 10 µM

CCOc1ccc(OCc2ccc(C(=O)NNC3CC(=O)N(CCOC)C3=O)cc2)cc1 (configuration not stated)
IC50: > 10 µM | IC90: > 10 µM

COc1ccc(CNC(=O)Cn2ncc(Cl)c(Cl)c2=O)cc1OC
IC50: > 10 µM | IC90: > 10 µM

C=CCN(CC(=O)NCc1ccc2c(c1)OCO2)S(=O)(=O)c1ccc(Cl)c(Cl)c1
IC50: > 10 µM | IC90: > 10 µM

CN(CC(=O)Nc1ccc(N2CCOCC2)cc1)Cn1nc(-c2cccs2)n(CC2CCCO2)c1=S (configuration not stated)
IC50: > 10 µM | IC90: > 10 µM

COc1ccc(Br)cc1/C=C/c1ccc2c([N+](=O)[O-])cccc2n1
IC50: > 10 µM | IC90: > 10 µM

COc1cc(C(=O)NCC(c2ccco2)N2CCCCC2)ccc1Oc1ccc(Cl)cc1[N+](=O)[O-] (configuration not stated)
IC50: 5.95 µM | IC90: > 10 µM

O=C(NNC(=O)c1ccccc1F)c1ccc(N2CCCC2=O)cc1
IC50: > 10 µM | IC90: > 10 µM

CCCn1c(SCC2=C(C(=O)OCC)C(C)NC(=O)N2)nc2sc3c(c2c1=O)CCC(C(C)(C)CC)C3 (configuration not stated)
IC50: > 10 µM | IC90: > 10 µM

COc1ccc(N2C(=O)/C(=C\NC3CCCCC3C)c3ccccc3C2=O)cc1OC (configuration not stated)
IC50: > 10 µM | IC90: > 10 µM

CC(=O)Nc1ccc(Sc2ccc(S(C)(=O)=O)cc2[N+](=O)[O-])cc1
IC50: > 10 µM | IC90: > 10 µM

Cc1cc(C)cc(N(CCC#N)C(=O)CSc2nc3cc(Cl)ccc3c(=O)n2Cc2ccccc2)c1
IC50: > 10 µM | IC90: > 10 µM

O=C(OCc1cccc2ccccc12)C1(c2ccccc2)CCN(S(=O)(=O)c2ccccc2)CC1
IC50: 4.79 µM | IC90: > 10 µM

O=C(c1cc(C(=O)N2CCCC2)c2nc3scc(-c4ccccc4)c3c(=O)n2c1)c1ccccc1O
IC50: > 10 µM | IC90: > 10 µM

Cc1cc(C(=O)COn2nnc3ccc(S(=O)(=O)N4CCOCC4)cc32)c(C)n1C
IC50: > 10 µM | IC90: > 10 µM

COc1cc2c(cc1NC(=O)C(C)N1CCN(C/C=C/c3ccccc3)CC1)oc1ccccc12 (configuration not stated)
IC50: 9.73 µM | IC90: > 10 µM

CCOc1cc(N2CCOCC2)c(OCC)cc1NC(=O)c1cc(Cl)c(OC)c(OC)c1
IC50: > 10 µM | IC90: > 10 µM

N#Cc1cc([N+](=O)[O-])ccc1Sc1nnc(C2COc3ccccc3O2)n1-c1ccccc1 (configuration not stated)
IC50: > 10 µM | IC90: > 10 µM

Cc1ccccc1/N=C1\SCC(C)(C)N1C(=O)c1ccccc1OCc1ccccc1
IC50: > 10 µM | IC90: > 10 µM

CC(NC(=O)c1ccc(S(=O)(=O)C(F)F)cc1)C12CC3CC(CC(C3)C1)C2 (configuration not stated)
IC50: > 10 µM | IC90: > 10 µM

COc1cc(/C=C/C(=O)OC(C(=O)c2c[nH]c3ccccc23)c2ccccc2)cc(OC)c1OC (configuration not stated)
IC50: > 10 µM | IC90: > 10 µM

COc1cccc(N(C)C(=O)c2nn(Cc3ccccc3)c(=O)c3ccccc23)n1
IC50: > 10 µM | IC90: > 10 µM

COC(=O)c1cc(C(=O)OCC(=O)NCCC2=CCCCC2)cc([N+](=O)[O-])c1
IC50: > 10 µM | IC90: > 10 µM
